Each structure is given as a SMILES string.

One data set addresses CYP2C9 (Homo sapiens, UniProt P11712). The experiment in a line: Inhibition of CYP2C9 (unknown origin) assessed as enzyme activity at 10 uM relative to control. It is filed as ADME. Also on record: scale not given: the % may be the effect or the level left. The conditions noted are these: read-out: Activity.
Data set [1] can be described thus: Metabolic stability of the compound in rat plasma assessed as parent compound remaining measured after 30 mins. It counts as ADME, cell-free. The note with it: read-out: Stability.
A short description of data set [2]: Metabolic stability of the compound in mouse liver microsomes assessed as parent compound remaining measured after 30 mins. It counts as ADME, Microsome. The note with it: read-out: Stability.
The next data set has as its target CYP3A4 (Homo sapiens, UniProt P08684). The experiment in a line: Inhibition of CYP3A4 (unknown origin) assessed as enzyme activity at 10 uM relative to control. It is filed as ADME. Also on record: scale not given: the % may be the effect or the level left. The conditions noted are these: read-out: Activity.
In a further data set the target is T1, CYP1A2 (Homo sapiens, UniProt P05177).
T1 sequence (P05177 whole entry): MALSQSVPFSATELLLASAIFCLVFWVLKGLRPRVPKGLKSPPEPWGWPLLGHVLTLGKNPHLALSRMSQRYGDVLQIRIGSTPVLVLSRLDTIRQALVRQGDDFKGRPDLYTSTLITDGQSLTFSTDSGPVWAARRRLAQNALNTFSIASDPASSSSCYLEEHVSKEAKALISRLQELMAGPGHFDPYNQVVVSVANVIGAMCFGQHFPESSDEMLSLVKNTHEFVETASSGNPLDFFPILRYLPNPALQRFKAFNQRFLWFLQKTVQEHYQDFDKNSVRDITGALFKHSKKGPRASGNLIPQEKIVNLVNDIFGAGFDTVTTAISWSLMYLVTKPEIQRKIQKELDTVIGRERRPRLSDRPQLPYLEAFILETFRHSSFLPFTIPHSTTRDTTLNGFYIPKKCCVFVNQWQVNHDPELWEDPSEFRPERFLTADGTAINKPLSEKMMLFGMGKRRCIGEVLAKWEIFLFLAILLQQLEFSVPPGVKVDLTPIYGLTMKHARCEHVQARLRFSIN
The experiment in a line: Inhibition of CYP1A2 (unknown origin) assessed as enzyme activity at 10 uM relative to control. It is filed as ADME. Also on record: scale not given: the % may be the effect or the level left. The conditions noted are these: read-out: Activity.

The nature of data set [3]: Metabolic stability of the compound in human plasma assessed as parent compound remaining measured after 30 mins. The note with it: read-out: Stability. It counts as ADME, cell-free.
The target of another data set is CYP2C19 (Homo sapiens, UniProt P33261). Put plainly: Inhibition of CYP2C19 (unknown origin) assessed as enzyme activity at 10 uM relative to control. Also on record: scale not given: the % may be the effect or the level left. It counts as ADME. The note with it: read-out: Activity.
For the next data set, the target named is CYP2D6 (Homo sapiens, UniProt P10635). The experiment in a line: Inhibition of CYP2D6 (unknown origin) assessed as enzyme activity at 10 uM relative to control. It is filed as ADME. Also on record: scale not given: the % may be the effect or the level left. The conditions noted are these: read-out: Activity.
In data set [4] the target is T2, Nuclear factor erythroid 2-related factor 2 (Homo sapiens, UniProt Q16236).
T2 sequence (Q16236 whole entry): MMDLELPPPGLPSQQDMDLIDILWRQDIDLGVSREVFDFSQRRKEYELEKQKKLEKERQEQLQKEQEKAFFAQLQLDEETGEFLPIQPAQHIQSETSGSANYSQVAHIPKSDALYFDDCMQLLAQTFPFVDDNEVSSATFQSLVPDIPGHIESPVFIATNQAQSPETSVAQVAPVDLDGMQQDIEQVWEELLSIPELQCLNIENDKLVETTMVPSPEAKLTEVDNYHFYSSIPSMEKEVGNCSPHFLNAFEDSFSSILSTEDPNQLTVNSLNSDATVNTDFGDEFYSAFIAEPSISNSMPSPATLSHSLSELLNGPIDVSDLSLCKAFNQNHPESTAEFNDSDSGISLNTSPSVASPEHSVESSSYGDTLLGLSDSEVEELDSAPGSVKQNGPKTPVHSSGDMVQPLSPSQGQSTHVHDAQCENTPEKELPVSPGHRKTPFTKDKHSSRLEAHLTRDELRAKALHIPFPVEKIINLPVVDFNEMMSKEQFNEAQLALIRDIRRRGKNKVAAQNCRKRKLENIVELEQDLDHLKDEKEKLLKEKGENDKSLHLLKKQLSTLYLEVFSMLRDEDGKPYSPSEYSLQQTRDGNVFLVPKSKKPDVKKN
The experiment in a line: Activation of Nrf2 in human U2OS cells co-expressing Keap1 assessed as induction of Nrf2 nuclear translocation incubated for 6 hrs by PathHunter chemiluminescence based analysis. It counts as cell-based.

Data set [5] in a line: Metabolic stability of the compound in human liver microsomes assessed as parent compound remaining measured after 30 mins. It counts as ADME, Microsome. The conditions noted are these: read-out: Stability.

CYP2D6, sequence (P10635 whole entry): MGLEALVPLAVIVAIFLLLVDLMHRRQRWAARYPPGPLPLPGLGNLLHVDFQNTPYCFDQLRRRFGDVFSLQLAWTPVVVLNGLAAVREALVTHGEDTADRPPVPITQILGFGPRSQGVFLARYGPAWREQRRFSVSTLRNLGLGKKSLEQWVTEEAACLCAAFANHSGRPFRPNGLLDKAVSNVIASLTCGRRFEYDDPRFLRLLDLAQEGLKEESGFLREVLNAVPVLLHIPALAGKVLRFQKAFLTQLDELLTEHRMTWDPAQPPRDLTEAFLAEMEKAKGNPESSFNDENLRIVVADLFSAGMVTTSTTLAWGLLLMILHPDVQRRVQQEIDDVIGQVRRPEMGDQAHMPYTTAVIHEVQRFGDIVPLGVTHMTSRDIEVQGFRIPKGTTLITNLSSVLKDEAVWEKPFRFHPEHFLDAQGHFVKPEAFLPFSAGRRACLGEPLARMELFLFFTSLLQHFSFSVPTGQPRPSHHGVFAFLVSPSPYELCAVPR
CYP2C19, sequence (P33261 whole entry): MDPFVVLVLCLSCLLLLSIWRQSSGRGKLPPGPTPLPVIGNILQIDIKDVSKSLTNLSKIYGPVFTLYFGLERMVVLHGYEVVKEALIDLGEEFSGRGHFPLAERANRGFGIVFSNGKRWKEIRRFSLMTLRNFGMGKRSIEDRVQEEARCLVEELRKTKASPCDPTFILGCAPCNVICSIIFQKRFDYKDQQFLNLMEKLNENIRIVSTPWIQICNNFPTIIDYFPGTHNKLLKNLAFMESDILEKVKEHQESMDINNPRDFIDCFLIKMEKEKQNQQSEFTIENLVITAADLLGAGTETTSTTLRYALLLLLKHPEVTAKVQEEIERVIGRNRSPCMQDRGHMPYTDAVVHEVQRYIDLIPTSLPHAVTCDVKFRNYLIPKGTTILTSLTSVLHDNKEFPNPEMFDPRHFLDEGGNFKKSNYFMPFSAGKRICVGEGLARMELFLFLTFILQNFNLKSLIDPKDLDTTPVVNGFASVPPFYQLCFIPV
CYP3A4, sequence (P08684 whole entry): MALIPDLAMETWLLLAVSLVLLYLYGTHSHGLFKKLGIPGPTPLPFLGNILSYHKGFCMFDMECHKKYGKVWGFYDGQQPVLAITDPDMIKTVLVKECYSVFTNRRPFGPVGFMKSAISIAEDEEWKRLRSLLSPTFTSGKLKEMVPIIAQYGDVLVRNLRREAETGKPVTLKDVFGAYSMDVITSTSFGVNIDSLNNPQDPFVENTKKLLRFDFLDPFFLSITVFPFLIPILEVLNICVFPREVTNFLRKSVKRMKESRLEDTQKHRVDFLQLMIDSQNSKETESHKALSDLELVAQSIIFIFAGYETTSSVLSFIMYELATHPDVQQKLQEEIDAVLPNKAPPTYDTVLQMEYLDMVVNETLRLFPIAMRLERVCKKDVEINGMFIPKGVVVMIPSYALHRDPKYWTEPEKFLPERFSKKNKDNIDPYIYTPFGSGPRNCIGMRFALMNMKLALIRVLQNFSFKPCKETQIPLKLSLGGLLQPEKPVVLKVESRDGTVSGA
CYP2C9, sequence (P11712 whole entry): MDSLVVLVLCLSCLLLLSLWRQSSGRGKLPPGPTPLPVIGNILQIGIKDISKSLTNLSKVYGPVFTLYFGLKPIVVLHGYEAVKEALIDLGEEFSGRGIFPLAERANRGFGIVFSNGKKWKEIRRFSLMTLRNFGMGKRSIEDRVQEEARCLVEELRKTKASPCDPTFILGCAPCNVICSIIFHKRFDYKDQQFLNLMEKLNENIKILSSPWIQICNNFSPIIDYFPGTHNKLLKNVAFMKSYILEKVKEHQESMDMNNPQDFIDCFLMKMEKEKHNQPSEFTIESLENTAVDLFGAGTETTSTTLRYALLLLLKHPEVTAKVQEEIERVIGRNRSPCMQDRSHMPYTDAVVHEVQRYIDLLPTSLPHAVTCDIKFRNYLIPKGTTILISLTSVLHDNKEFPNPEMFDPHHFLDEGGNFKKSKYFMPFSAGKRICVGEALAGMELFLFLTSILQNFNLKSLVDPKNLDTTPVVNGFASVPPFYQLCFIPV

For `COc1ccnc(S(=O)(=O)/C=C/c2ccccc2C(F)(F)F)c1`, the activity at 10 µM at CYP2C9 came to 38.2%; at CYP3A4 it was 39.8%; at CYP1A2, 33.8%; at CYP2C19, 14.9%; at CYP2D6, 96.3%. In addition, the remaining at 0.5 h was determined as 95.3% in data set [1], 1.6% in [2], 99% in [3] and 58.5% in data set [5]. Further, the EC50 in [4] is 0.115 µM.
With `COc1ncccc1S(=O)(=O)/C=C/c1ccccc1C(F)(F)F`, the activity at 10 µM on CYP2C9 was greater than 99%; on CYP3A4, 51.7%; on CYP1A2, 12.4%; at CYP2C19 it was 16.2%; on CYP2D6, 94.4%. The remaining at 0.5 h in [1] was 89.3%; in [2], 48.1%; in data set [3], 91.3%; in data set [5] it was 75.2%. In addition, the EC50 in data set [4] was found to be 0.749 µM.
With `COc1cccnc1S(=O)(=O)/C=C/c1ncccc1C(F)(F)F`, the activity at 10 µM on CYP2C9 is 69.7%; at CYP3A4 it was 36.4%; at CYP1A2, 72.6%; at CYP2C19, 60.5%; on CYP2D6, greater than 99%. For the same compound, the remaining at 0.5 h worked out at 84.1% in [1], 64.7% in data set [2], 94% in [3] and 87.8% in data set [5]. The EC50 in [4] amounted to 0.107 µM.
For `COc1ccnc(S(=O)(=O)/C=C/c2ccccc2Cl)c1`, the activity at 10 µM came to 73.6% on CYP2C9; 49.8% on CYP3A4; 28.5% on CYP1A2; 11.1% at CYP2C19; 97.5% on CYP2D6. Further, the remaining at 0.5 h is 96.5% in data set [1], 2.2% in data set [2], greater than 99% in data set [3] and 22.8% in data set [5]. Also, the EC50 in data set [4] is 0.058 µM.
On to `COc1ccnc(S(=O)(=O)/C=C/c2ccc(Cl)nc2)c1`, for which the activity at 10 µM was 91.7% on CYP2C9; greater than 99% on CYP3A4; 83% on CYP1A2; 17.9% on CYP2C19; greater than 99% at CYP2D6. For the same compound, the remaining at 0.5 h in data set [1] came to 97.3%; in [2], 82.1%; in [3], 98.6%; in [5] it was 65.8%. Further, the EC50 in data set [4] was found to be 0.914 µM.
On to `COc1ncccc1S(=O)(=O)/C=C/c1ncccc1Cl`, for which the activity at 10 µM on CYP2C9 was greater than 99%; at CYP3A4 it was 53%; on CYP1A2 it was 31%; at CYP2C19, 15%; on CYP2D6, greater than 99%. Also, the remaining at 0.5 h in data set [1] came out at 91.3%; in [2], 59.2%; in data set [3], 98.5%; in data set [5], 77.6%. Moreover, the EC50 in [4] came to 0.075 µM.
For `COc1ccnc(S(=O)(=O)/C=C/c2cccc(Cl)c2)c1`, the activity at 10 µM was greater than 99% on CYP2C9; 38.2% at CYP3A4; 63.4% at CYP1A2; 7% on CYP2C19; 97.2% on CYP2D6. In addition, the remaining at 0.5 h in [1] is 94.7%; in data set [2], 8.7%; in data set [3], greater than 99%; in data set [5], 54.6%. Further, the EC50 in [4] was determined as 0.824 µM.
Turning to `COc1ccnc(S(=O)(=O)/C=C/c2ccc(Cl)cc2)c1`, the activity at 10 µM is greater than 99% on CYP2C9; 85.8% at CYP3A4; 49% at CYP1A2; 10.5% on CYP2C19; 98.5% on CYP2D6. Besides, the remaining at 0.5 h was greater than 99% in data set [1], 18.8% in data set [2], greater than 99% in data set [3] and 37.8% in data set [5]. The EC50 in data set [4] came out at 1.22 µM.
Take `COc1ccc(S(=O)(=O)/C=C/c2ncccc2Cl)nc1`: the activity at 10 µM at CYP2C9 was greater than 99%; on CYP3A4 it was 72.6%; on CYP1A2 it was 74.2%; on CYP2C19 it was 29%; at CYP2D6, greater than 99%. The remaining at 0.5 h in data set [1] came to 91.5%; in data set [2], 44%; in [3] it was 96.7%; in [5], 48.1%. Further, in data set [4], the EC50 is 0.033 µM.
Take `COc1ccc(S(=O)(=O)/C=C/c2ccccc2Cl)nc1`: the activity at 10 µM was greater than 99% at CYP2C9; 58.8% on CYP3A4; 46.1% at CYP1A2; 5.4% on CYP2C19; 100% on CYP2D6. Also, the remaining at 0.5 h in [1] was greater than 99%; in data set [2], 5.6%; in data set [3] it was greater than 99%; in data set [5] it was 9.5%. The EC50 in [4] worked out at 0.13 µM.
For the compound `COc1cccc(S(=O)(=O)/C=C/c2ncccc2C(F)(F)F)n1`, the activity at 10 µM on CYP2C9 was 81.9%; on CYP3A4, 32.5%; at CYP1A2, 18.2%; at CYP2C19, 15.1%; at CYP2D6 it was greater than 99%. Moreover, the remaining at 0.5 h in [1] came out at 82.7%; in data set [2], 4%; in data set [3], 94.2%; in data set [5] it was 38.8%. Moreover, the EC50 in data set [4] is 0.194 µM.
Take `COc1cccc(S(=O)(=O)/C=C/c2ncccc2Cl)n1`: the activity at 10 µM at CYP2C9 was greater than 99%; on CYP3A4 it was 36.8%; at CYP1A2, 23.1%; at CYP2C19, 12.5%; at CYP2D6, 96%. The remaining at 0.5 h in data set [1] is 83%; in [2] it was 9.6%; in data set [3] it was greater than 99%; in data set [5] it was 49.4%. Also, the EC50 in data set [4] stood at 0.093 µM.
Consider `COc1ccnc(S(=O)(=O)/C=C/c2ncccc2C(F)(F)F)c1`, for which the activity at 10 µM is 31% at CYP2C9; 83.2% at CYP3A4; 72.2% at CYP1A2; 29.8% at CYP2C19; greater than 99% on CYP2D6. The remaining at 0.5 h in [1] amounted to 82.4%; in data set [2], 19%; in data set [3], 90.9%; in [5], 63.2%. Further, in data set [4], the EC50 worked out at 0.174 µM.
For `COc1ncccc1S(=O)(=O)/C=C/c1ccccc1Cl`, the activity at 10 µM at CYP2C9 was greater than 99%; on CYP3A4, 48.5%; on CYP1A2, 10.7%; on CYP2C19, 7.1%; at CYP2D6 it was 99.5%. Moreover, the remaining at 0.5 h in data set [1] is 98.9%; in data set [2], 48.1%; in data set [3], greater than 99%; in data set [5], 75.2%. Also, the EC50 in data set [4] is 0.189 µM.
As for `COc1ccnc(S(=O)(=O)/C=C/c2ncccc2Cl)c1`, the activity at 10 µM on CYP2C9 came to 76.1%; on CYP3A4, 70.9%; at CYP1A2 it was 69.9%; at CYP2C19, 27.6%; at CYP2D6, 100%. Also, the remaining at 0.5 h came to 65.9% in [1], 36.8% in data set [2], 95% in [3] and 61.7% in [5]. Further, the EC50 in data set [4] was determined as 0.03 µM.

Source of the values: ChEMBL document CHEMBL5370549, “Optimization and evaluation of pyridinyl vinyl sulfones as Nrf2 activator for the antioxidant and anti-inflammatory effects” (Eur J Med Chem, 2023).
